Laboratory results reported in US12247004B2, “2-amino-N-(amino-oxo-aryl-lambda6-sulfanylidene)acetamide compounds and their therapeutic use” (Oxford Drug Design Limited, priority 2019, dated 2025).
pIC50: −log10 of the molar value. ≈ marks a conversion by molar mass, not a printed value. Where a name gives a salt, the structure may show the parent alone. Read-outs that look alike come from different tables or passages of the source.

Columns and labels:
[1] = target: Leucyl-tRNA synthetase (LeuRS) (Escherichia coli (strain K12), UniProt P07813); experiment: Leucyl-tRNA synthetase enzyme inhibition (AMP-Glo; single point % inhibition at 100 μM and IC50); type: biochemical
Sequence of Leucyl-tRNA synthetase (LeuRS) (P07813 whole entry, looked up): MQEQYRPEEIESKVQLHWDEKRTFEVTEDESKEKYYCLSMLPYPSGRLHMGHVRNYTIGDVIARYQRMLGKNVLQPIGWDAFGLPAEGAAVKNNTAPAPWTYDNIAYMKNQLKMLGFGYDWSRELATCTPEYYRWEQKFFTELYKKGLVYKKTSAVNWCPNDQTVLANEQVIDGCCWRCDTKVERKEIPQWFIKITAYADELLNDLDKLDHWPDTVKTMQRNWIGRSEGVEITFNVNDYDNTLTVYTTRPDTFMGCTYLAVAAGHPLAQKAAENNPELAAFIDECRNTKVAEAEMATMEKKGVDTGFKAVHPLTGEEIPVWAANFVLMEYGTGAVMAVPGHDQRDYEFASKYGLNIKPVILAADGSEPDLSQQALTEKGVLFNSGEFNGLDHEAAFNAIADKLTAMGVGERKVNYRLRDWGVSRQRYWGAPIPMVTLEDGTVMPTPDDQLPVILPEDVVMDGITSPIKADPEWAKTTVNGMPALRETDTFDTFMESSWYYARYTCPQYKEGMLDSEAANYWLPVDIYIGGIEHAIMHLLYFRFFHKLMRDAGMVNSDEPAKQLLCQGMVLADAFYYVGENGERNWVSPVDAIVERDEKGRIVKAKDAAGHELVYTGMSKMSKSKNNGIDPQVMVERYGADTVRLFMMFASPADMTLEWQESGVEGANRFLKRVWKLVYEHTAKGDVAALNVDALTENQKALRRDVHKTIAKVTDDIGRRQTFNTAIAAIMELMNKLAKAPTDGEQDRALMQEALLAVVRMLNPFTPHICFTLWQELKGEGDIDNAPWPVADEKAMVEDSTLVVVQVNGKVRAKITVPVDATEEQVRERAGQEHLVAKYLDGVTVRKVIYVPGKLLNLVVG

[2] = Human cell viability / cytotoxicity (CellTiter-Glo, 24 hours); type: cell-based; settings: human, HepG2 cells (ATCC HB-8065); HepG2 ATCC HB-8065, 24 hours; read-out: Cytotoxicity in HepG2 ATCC HB-8065 Cell Line, IC50
Protocol: Study 3—Human Cell Viability
Compounds were assessed for potential non-specific cytotoxic effects against a human hepatic cell line (HepG2 ATCC HB-8065). 96-well plates were seeded with HepG2 cells in concentration of 15,000 cells per well in 100 μL of MEM growth media completed with 1% NEAA and 1% sodium pyruvate. Border wells were filled with 100 μL of sterile PBS. Two days upon cells incubation, the compounds were added. Compound dilutions were prepared in 96-well V-bottom plate in pure DMSO. Growth media from 5 plates were aspirated and replaced with 98.7 μL of fresh growth media. 1.28 μL of compounds prepared in V-bottom plates were transferred with multichannel pipette into test plates (78.1× dilution). Final DMSO concentration was 1.28% per well. In control wells, 1.28 μL of DMSO was added in 98.7 μL of media. Compounds were tested in duplicates. Cells were incubated with compounds for 24 hours when cell viability was assessed by measuring ATP levels. ATP levels were measured by adding 50 μL of CellTiter-Glo reagent to each well and after 5 minutes of incubation luminescence was measured with SpectraMax i3. The potential effect of tested compounds on cell viability was determined by comparing the signal obtained in presence of different concentrations of the compounds with those obtained in the presence of DMSO only. The potential effects were then calculated and presented as IC50 values (μg/mL).

[3] = tested on: bacteria (ATCC reference strains); experiment: Antibacterial activity, MIC by broth micro-dilution (CLSI)
[4] = Acinetobacter baumannii, read-out: Antibacterial Activity (MIC), E = A. baumannii B1931
[5] = Enterobacter cloacae, read-out: Antibacterial Activity (MIC), B = Enterobacter cloacae B1966
[6] = Escherichia coli, ATCC25922, read-out: Antibacterial Activity (MIC), A = E. coli ATCC 25922
[7] = Haemophilus influenzae, ATCC49247, read-out: Antibacterial Activity (MIC), F = H. influenzae ATCC 49247
[8] = Klebsiella pneumoniae, ATCC700603, read-out: Antibacterial Activity (MIC), C = K. pneumoniae ATCC 700603
[9] = Pseudomonas aeruginosa, ATCC27853, read-out: Antibacterial Activity (MIC), D = P. aeruginosa ATCC 27853
[10] = Escherichia coli, BAA2469, read-out: Antibacterial Activity (MIC), G = E. coli BAA-2469
[11] = E. coli LeuRS, read-out: Enzyme Inhibition - IC50, E. coli LeuRS

| SMILES | pIC50 [1] | IC50 at 24 h [2] [mg/L] | MIC [3, 4] [mg/L] | MIC [3, 5] [mg/L] | MIC [3, 6] [mg/L] | MIC [3, 7] [mg/L] | MIC [3, 8] [mg/L] | MIC [3, 9] [mg/L] | MIC [3, 10] [mg/L] | pIC50 [1, 11] |
| --- | --- | --- | --- | --- | --- | --- | --- | --- | --- | --- |
| CC(C)C[C@H](N)C(=O)N=[S@](N)(=O)c1cccc(Br)c1.Cl [ANASIA-044-1] | 7.15 | > 64 | 64 | 16 | 2 | 2 | 64 | > 64 | – | – |
| CC(C)C[C@H](N)C(=O)N=[S@](N)(=O)c1cccc(OC(F)F)c1.Cl [ANASIA-088-1] | 7.12 | > 64 | > 64 | 64 | 4 | 4 | > 256 | > 64 | 32 | – |
| CC(C)C[C@H](N)C(=O)N=[S@](N)(=O)c1cccc(C#N)c1.Cl [ANASIA-041-1] | 7.75 | > 64 | > 64 | > 64 | 5.66 | 2.83 | > 64 | > 64 | 64 | – |
| Cc1cccc([S@](N)(=O)=NC(=O)[C@@H](N)CC(C)C)c1 [ANASIA-005-2] | – | > 64 | > 64 | 64 (≈ 226 µM) | 8 (≈ 28.2 µM) | 16 (≈ 56.5 µM) | > 64 | > 64 | 32 (≈ 113 µM) | 6.82 |
| CC(C)C[C@H](N)C(=O)N=[S@@](N)(=O)c1ccccc1F.Cl [ANASIA-087-1] | 6.54 | > 64 | > 64 | 64 | 11.3 | 32 | > 64 | > 64 | – | – |
| CC(C)C[C@H](N)C(=O)N=S(N)(=O)c1ccc(C(F)F)s1 (stereo partly drawn) [ANASIA-017] | 6.84 | > 64 | > 64 | > 64 | 16 (≈ 49.2 µM) | 8 (≈ 24.6 µM) | > 64 | > 64 | – | – |
| CC(C)C[C@H](N)C(=O)N=S(N)(=O)c1ccccc1 (stereo partly drawn) [ANASIA-003] | – | > 64 | 32 (≈ 119 µM) | 16 (≈ 59.4 µM) | 2.83 (≈ 10.5 µM) | 16 (≈ 59.4 µM) | 8 (≈ 29.7 µM) | 50.8 (≈ 189 µM) | – | 7.03 |
| CC(C)C[C@H](N)C(=O)N=S(N)(=O)c1cccnc1 (stereo partly drawn) [ANASIA-006] | – | > 64 | > 64 | > 64 | 64 (≈ 237 µM) | > 64 | > 64 | > 64 | – | 6.15 |
| CC(C)C[C@H](N)C(=O)N=S(N)(=O)c1csc2ccsc12 (stereo partly drawn) [ANASIA-100] | – | > 64 | 32 (≈ 96.5 µM) | – | 0.5 (≈ 1.51 µM) | 0.5 (≈ 1.51 µM) | 64 (≈ 193 µM) | > 64 | 4 (≈ 12.1 µM) | 7.48 |
| CC(C)C[C@H](N)C(=O)N=S(N)(=O)c1cc2ccccc2s1 (stereo partly drawn) [ANASIA-023] | 5.89 | > 64 | – | – | – | – | – | – | – | – |
| CC(C)C[C@H](N)C(=O)N=[S@@](N)(=O)c1ccccc1 [ANASIA-003-2, (S)-2-amino-N—((R)-amino(oxo)(phenyl)-λ6-sulfanylidene)-4-methylpentanamide hydrochloride] | – | > 64 | – | – | – | – | – | – | – | 5.65 |
| CC(C)C[C@H](N)C(=O)N=S(N)(=O)c1csc(Cl)c1 (mixture of isomers) [ANASIA-099] | 7.14 | > 64 | – | – | – | – | – | – | – | – |
| CC(C)C[C@H](N)C(=O)N=S(N)(=O)c1cccc2ccccc12 (stereo partly drawn) [ANASIA-016] | – | > 64 | – | – | – | – | – | – | – | 5.52 |
| Cc1ccsc1[S@](N)(=O)=NC(=O)[C@@H](N)CC(C)C [ANASIA-015-2] | – | > 64 | – | – | – | – | – | – | – | 5.73 |
| CC(C)C[C@H](N)C(=O)N=[S@](N)(=O)c1ccc(Cl)cc1 [ANASIA-040-1] | 5.60 | > 64 | – | – | – | – | – | – | – | – |
| CC(C)C[C@H](N)C(=O)N=[S@](N)(=O)c1ccc(Cl)c(Cl)c1 [ANASIA-042-1] | 5.95 | > 64 | – | – | – | – | – | – | – | – |
| CC(C)C[C@H](N)C(=O)N=[S@](N)(=O)c1cccs1.Cl (single isomer, unassigned) [ANASIA-007-1, (S)-2-amino-N—((S)-amino(oxo)(thiophen-2-yl)-λ6-sulfanylidene)-4-methylpentanamide hydrochloride] | – | > 64 | – | – | – | – | – | – | – | 7.20 |
| CC(C)C[C@H](N)C(=O)N=[S@](N)(=O)c1cccc(-c2cccc(F)c2)c1 [ANASIA-051-1, (S)-2-amino-N—((S)-amino(3′-fluoro-[1,1′-biphenyl]-3-yl)(oxo)-λ6-sulfanylidene)-4-methylpentanamide hydrochloride] | 6.22 | > 64 | – | – | – | – | – | – | – | – |
| CC(C)C[C@H](N)C(=O)N=[S@@](N)(=O)c1ccsc1 [ANASIA-008-2] | – | > 64 | – | – | – | – | – | – | – | 5.70 |
| CC(C)C[C@H](N)C(=O)N=[S@@](N)(=O)c1cccc2ccccc12 [ANASIA-016-2] | – | > 64 | – | – | – | – | – | – | – | 5.25 |
| CC(C)C[C@H](N)C(=O)N=[S@](N)(=O)c1ccc(F)c2ccccc12 [ANASIA-020-1] | 5.69 | > 64 | – | – | – | – | – | – | – | – |
| CC(C)C[C@H](N)C(=O)N=[S@@](N)(=O)c1cccc(Oc2ccc(Cl)cc2)c1 [ANASIA-047-2] | – | 45.3 (≈ 114 µM) | – | – | – | – | – | – | – | 5.89 |
| CC(C)C[C@H](N)C(=O)N=S(N)(=O)c1ccc2ccccc2c1 (stereo partly drawn) [ANASIA-013] | – | > 64 | – | – | – | – | – | – | – | 5.45 |
| CC(C)C[C@H](N)C(=O)N=[S@](N)(=O)c1ccc(Cl)s1 [ANASIA-009-1] | 5.74 | > 64 | – | – | – | – | – | – | – | – |
| CC(C)C[C@H](N)C(=O)N=[S@@](N)(=O)c1cccc(Cl)c1Cl [ANASIA-046-2] | 5.59 | > 64 | – | – | – | – | – | – | – | – |
| Cc1ccc([S@@](N)(=O)=NC(=O)[C@@H](N)CC(C)C)cc1 [ANASIA-021-1] | 5.69 | > 64 | – | – | – | – | – | – | – | – |
| CC(C)C[C@H](N)C(=O)N=[S@@](N)(=O)c1cccc(-c2ccccc2)c1 [ANASIA-018-2] | – | > 64 | – | – | – | – | – | – | – | 5.53 |
